Data as given in article PMC10756276, “Highly specific σ2R/TMEM97 ligand FEM-1689 alleviates neuropathic pain and inhibits the integrated stress response” (Proceedings of the National Academy of Sciences of the …, 2023).
pIC50, pKi: −log10 of the molar value. Read-outs that look alike come from different tables or passages of the source.

Tests used:
5HT1D = 5HT1D (Homo sapiens, UniProt P28221); experiment: PDSP competitive binding assay; conditions: 10 µM test article; read-out: Ki: primary assay inhibition of radioligand binding, 5HT1D
5HT2A = 5HT2A (Homo sapiens, UniProt P28223); experiment: PDSP competitive binding assay; conditions: 10 µM test article; read-out: Ki: primary assay inhibition of radioligand binding, 5HT2A
5HT3 = 5HT3 (Homo sapiens, UniProt P46098); experiment: PDSP competitive binding assay; conditions: 10 µM test article; read-out: Ki: primary assay inhibition of radioligand binding, 5HT3
Alpha1b = target: T1, Alpha1b (Homo sapiens, UniProt P35368); experiment: PDSP competitive binding assay; conditions: 10 µM test article; read-out: Ki: primary assay inhibition of radioligand binding, Alpha1b
T1 construct: purchased NIMH Psychoactive Drug Screening Program (PDSP), University of North Carolina at Chapel Hill

Alpha1d = target: T2, Alpha1d (Homo sapiens, UniProt P25100); experiment: PDSP competitive binding assay; conditions: 10 µM test article; read-out: Ki: primary assay inhibition of radioligand binding, Alpha1d
T2 construct: purchased NIMH Psychoactive Drug Screening Program (PDSP), University of North Carolina at Chapel Hill

Alpha2c = target: T3, Alpha2c (Homo sapiens, UniProt P18825); experiment: PDSP competitive binding assay; conditions: 10 µM test article; read-out: Ki: primary assay inhibition of radioligand binding, Alpha2c
T3 construct: purchased NIMH Psychoactive Drug Screening Program (PDSP), University of North Carolina at Chapel Hill

Beta2 = Beta2 (Homo sapiens, UniProt P07550); experiment: PDSP competitive binding assay; conditions: 10 µM test article; read-out: Ki: primary assay inhibition of radioligand binding, Beta2
D1 = D1 (Homo sapiens, UniProt P21728); experiment: PDSP competitive binding assay; conditions: 10 µM test article; read-out: Ki: primary assay inhibition of radioligand binding, D1
D2 = D2 (Homo sapiens, UniProt P14416); experiment: PDSP competitive binding assay; conditions: 10 µM test article; read-out: Ki: primary assay inhibition of radioligand binding, D2
D3 = D3 (Homo sapiens, UniProt P35462); experiment: PDSP competitive binding assay; conditions: 10 µM test article; read-out: Ki: primary assay inhibition of radioligand binding, D3
DOR = DOR (Homo sapiens, UniProt P41143); experiment: PDSP competitive binding assay; conditions: 10 µM test article; read-out: Ki: primary assay inhibition of radioligand binding, DOR
H1 = target: T4, H1 (Homo sapiens, UniProt P35367); experiment: PDSP competitive binding assay; conditions: 10 µM test article; read-out: Ki: primary assay inhibition of radioligand binding, H1
T4 construct: purchased NIMH Psychoactive Drug Screening Program (PDSP), University of North Carolina at Chapel Hill

hERG = hERG (Homo sapiens, UniProt Q12809); experiment: PDSP competitive binding assay (safety/nuisance target)
[1] = system: p-eIF2α in mouse DRG neurons; experiment: p-eIF2α immunocytochemistry in cultured DRG neurons; format: cell-based; conditions: for p-eIF2α levels: ISRIB 200 nM
Method: The ICC protocol was based on a previously published protocol ([76]). […] Cells were blocked with 10% normal goat serum (NGS) in PBS-triton X (0.1%). […] Antibodies were incubated at 4 °C overnight. […] It was washed with PBS twice. […] Images were analyzed using Olympus CellSens. […] Number of cells analyzed are detailed in SI Appendix, Tables S3 and S4. […]
T his BSA gradient containing the cells was centrifuged at 900g for 5 min at room temperatur e.
The pellet containing the cells was resuspended in Br ainPhys media (STEMCell #05790) containing 2% […]
1% Gluta Max (Gibco # 350 5 0061). Hu man DRG ne uron s were plated a nd grown o n glass coverslips coate d with po ly-D-lysine (Sigma #P7405). C ultured D RG neurons were plated for 24 hours before being treated.
Methylglyoxal (Sigma- Aldrich #M0252) and F EM- 1689 were serially diluted in media.
Mouse samples - DRG cultures […]
anesthesia and decapitated. […]
section above with minor differences.
Mouse DRG neurons were grown in
SAS-0132 and DKR-1677 were […]
dissolved in 100% DMSO to a final concentr ation of 200mM and stored at - 20 °C. and DKR-1677 were serially diluted in media. Untreated media was completely replaced with media containing each compound. […]
Slides were […]
incubated with 1:2 diluted hydrogen peroxide in distilled water for 10 min at r oom temper ature and washed twice in distilled water. The protease IV was applied to each section and incubated for 5 min at room temperature. Slides were w ashed twice in 1X PBS and RNA scope was performed immediately. A mixture of probes - Tmem97, Scn10a, and Fabp7 – was hybridized for 2 hours at 40 °C in a humidity control tray

Chain of hERG (Q12809 whole entry): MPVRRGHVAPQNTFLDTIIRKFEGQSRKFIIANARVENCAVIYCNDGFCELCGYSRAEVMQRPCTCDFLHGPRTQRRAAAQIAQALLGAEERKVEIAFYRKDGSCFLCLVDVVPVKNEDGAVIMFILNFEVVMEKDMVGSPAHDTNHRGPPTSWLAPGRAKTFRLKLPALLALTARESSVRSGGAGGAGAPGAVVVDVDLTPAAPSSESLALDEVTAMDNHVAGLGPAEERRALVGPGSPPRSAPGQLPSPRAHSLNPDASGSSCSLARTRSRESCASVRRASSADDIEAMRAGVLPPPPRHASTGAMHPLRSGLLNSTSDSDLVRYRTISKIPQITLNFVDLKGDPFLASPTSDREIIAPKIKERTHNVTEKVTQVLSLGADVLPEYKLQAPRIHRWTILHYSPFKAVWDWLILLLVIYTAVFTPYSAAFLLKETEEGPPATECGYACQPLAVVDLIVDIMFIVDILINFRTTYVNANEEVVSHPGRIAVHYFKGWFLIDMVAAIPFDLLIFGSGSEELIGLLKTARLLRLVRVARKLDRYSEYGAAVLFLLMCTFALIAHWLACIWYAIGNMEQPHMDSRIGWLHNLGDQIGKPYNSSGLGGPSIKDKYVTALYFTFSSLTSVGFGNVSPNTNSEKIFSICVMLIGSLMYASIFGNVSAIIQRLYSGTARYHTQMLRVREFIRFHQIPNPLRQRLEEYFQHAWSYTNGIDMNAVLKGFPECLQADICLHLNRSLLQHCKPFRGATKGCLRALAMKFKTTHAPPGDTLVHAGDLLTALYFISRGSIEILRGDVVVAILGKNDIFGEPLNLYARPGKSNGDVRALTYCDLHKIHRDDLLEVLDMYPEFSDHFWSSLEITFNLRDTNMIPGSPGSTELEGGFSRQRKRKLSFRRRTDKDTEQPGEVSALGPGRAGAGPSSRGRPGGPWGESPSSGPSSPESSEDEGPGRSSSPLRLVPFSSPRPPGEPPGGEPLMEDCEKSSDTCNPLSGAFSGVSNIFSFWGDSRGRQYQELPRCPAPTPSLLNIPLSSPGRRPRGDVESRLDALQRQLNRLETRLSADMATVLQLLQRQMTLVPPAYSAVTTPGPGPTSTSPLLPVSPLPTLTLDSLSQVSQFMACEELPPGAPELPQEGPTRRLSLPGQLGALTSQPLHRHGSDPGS
T1 sequence (P35368 whole entry): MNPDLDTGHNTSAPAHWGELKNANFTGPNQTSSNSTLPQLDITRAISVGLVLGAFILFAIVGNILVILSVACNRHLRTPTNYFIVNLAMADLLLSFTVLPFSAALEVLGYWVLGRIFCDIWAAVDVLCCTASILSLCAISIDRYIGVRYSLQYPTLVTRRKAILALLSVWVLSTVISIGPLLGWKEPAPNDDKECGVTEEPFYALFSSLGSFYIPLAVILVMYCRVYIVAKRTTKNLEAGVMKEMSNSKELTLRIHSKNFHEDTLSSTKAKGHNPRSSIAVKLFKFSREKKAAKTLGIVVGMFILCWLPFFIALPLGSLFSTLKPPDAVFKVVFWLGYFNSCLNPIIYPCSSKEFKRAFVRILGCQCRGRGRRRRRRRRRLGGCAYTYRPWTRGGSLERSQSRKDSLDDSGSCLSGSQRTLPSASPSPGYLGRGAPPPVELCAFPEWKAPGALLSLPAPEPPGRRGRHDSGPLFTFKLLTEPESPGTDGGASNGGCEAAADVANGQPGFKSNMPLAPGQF
T4 sequence (P35367 whole entry): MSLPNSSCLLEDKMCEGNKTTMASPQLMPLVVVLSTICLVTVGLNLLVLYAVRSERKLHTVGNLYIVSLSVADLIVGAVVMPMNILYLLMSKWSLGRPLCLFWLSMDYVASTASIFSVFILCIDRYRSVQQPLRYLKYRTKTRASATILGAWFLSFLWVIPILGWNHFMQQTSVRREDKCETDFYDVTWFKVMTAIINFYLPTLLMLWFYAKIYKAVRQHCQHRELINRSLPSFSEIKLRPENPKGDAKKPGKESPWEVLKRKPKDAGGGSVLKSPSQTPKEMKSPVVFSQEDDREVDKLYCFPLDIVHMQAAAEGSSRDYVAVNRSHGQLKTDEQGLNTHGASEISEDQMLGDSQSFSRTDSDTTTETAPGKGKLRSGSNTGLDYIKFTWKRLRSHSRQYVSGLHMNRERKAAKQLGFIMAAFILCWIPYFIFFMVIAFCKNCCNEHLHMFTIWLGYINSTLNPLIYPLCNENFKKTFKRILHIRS
Chain of DOR (P41143 whole entry): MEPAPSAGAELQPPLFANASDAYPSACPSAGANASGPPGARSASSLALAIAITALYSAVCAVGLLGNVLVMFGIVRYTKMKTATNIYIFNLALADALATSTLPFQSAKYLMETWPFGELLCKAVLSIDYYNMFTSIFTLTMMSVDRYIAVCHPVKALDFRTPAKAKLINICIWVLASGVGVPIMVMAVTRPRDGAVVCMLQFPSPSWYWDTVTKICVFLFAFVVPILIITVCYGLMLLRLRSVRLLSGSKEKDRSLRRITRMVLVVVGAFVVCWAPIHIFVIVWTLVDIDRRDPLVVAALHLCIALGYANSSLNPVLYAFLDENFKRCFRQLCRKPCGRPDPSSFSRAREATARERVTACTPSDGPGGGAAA
Chain of 5HT2A (P28223 whole entry): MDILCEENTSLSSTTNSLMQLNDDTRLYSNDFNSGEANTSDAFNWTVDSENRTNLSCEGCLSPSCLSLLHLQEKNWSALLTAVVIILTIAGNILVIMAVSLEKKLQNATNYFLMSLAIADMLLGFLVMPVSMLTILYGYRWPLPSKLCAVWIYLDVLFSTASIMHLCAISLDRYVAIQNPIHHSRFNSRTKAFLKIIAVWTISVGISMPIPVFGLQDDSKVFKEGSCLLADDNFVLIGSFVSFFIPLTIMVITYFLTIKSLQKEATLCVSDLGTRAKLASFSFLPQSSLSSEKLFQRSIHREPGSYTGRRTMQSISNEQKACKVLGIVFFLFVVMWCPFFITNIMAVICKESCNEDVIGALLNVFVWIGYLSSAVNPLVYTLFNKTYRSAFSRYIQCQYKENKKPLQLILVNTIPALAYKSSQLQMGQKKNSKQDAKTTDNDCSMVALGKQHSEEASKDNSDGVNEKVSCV
T3 sequence (P18825 whole entry): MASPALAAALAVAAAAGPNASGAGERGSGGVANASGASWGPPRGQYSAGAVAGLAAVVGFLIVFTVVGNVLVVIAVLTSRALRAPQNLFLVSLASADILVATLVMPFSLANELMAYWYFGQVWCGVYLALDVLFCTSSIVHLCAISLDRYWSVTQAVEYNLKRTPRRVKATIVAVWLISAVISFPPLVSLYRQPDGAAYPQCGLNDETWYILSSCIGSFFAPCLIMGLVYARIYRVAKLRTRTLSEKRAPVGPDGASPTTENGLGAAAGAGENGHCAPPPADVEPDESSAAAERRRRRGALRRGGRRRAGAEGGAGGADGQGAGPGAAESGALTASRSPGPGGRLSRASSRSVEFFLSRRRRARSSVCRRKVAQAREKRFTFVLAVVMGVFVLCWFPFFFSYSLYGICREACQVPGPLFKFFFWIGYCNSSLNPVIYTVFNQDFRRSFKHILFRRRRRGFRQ
Chain of 5HT3 (P46098 24-478): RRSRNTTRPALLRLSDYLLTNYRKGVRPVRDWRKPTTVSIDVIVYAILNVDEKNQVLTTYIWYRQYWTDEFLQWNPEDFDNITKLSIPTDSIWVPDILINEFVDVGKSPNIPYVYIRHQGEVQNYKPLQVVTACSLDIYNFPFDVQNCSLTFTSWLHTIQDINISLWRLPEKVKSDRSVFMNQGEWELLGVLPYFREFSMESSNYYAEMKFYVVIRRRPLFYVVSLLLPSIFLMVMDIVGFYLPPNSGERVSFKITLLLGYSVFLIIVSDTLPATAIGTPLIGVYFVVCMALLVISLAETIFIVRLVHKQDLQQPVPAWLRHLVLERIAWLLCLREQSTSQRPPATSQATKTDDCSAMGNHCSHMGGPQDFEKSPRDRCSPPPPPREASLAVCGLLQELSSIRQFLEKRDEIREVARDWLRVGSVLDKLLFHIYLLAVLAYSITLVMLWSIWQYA
Chain of D1 (P21728 whole entry): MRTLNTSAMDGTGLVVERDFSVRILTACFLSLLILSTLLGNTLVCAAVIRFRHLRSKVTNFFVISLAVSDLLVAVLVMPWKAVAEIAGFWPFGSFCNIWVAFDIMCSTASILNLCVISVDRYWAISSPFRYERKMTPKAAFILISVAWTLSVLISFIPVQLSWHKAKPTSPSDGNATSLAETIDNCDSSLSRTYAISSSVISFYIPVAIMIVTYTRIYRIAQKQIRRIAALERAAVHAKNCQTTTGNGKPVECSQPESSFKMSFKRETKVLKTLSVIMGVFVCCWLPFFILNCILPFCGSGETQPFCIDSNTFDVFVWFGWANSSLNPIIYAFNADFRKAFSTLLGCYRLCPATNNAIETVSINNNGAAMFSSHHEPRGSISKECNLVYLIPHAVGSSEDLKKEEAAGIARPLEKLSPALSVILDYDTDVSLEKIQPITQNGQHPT
T2 sequence (P25100 whole entry): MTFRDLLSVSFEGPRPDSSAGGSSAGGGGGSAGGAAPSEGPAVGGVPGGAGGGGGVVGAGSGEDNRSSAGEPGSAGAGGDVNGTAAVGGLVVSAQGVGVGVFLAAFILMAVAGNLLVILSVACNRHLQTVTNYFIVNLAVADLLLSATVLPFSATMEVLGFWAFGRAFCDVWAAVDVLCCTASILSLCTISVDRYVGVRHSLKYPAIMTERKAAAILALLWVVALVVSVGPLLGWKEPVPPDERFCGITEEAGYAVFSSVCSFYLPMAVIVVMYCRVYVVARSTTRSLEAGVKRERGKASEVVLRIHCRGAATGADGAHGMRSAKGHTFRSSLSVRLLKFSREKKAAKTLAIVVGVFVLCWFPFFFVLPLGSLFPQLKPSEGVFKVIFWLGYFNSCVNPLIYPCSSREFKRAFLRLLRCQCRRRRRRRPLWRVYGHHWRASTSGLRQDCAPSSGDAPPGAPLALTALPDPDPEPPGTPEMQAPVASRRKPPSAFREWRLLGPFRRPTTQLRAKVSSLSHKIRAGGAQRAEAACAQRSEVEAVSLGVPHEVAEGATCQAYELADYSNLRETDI

Compound: OCCCN1CC[C@@H]2C[C@H]1c1cc(-c3ccc(C(F)(F)F)cc3)ccc12 [FEM-1689]
- inhibition at 10 µM (5HT1D): < 50%
- inhibition at 10 µM (5HT2A): < 50%
- inhibition at 10 µM (5HT3): < 50%
- inhibition at 10 µM (Alpha1b): < 50%
- inhibition at 10 µM (Alpha1d): < 50%
- inhibition at 10 µM (Alpha2c): < 50%
- inhibition at 10 µM (Beta2): < 50%
- inhibition at 10 µM (D1): < 50%
- inhibition at 10 µM (D2): < 50%
- inhibition at 10 µM (D3): < 50%
- inhibition at 10 µM (DOR): < 50%
- inhibition at 10 µM (H1): < 50%
- LogKi, HERG (hERG; dose response curve, given as LogKi with negative sign): -6.08
- pKi (hERG; dose response curve, read-out: Ki, HERG): 6.08
- pKi (hERG; single determination, read-out: hERG Ki): 6.08
- treatment time of maximal effect on p-eIF2α ([1]; 100 nM, wild-type mouse DRG neurons): 16 h
- half-life (t1/2) at reducing p-eIF2α levels in vitro ([1]; 100 nM, wild-type mouse DRG neurons, 0.5-16 h): 5.0 h
- pIC50 ([1]; DRG neuron, wild-type mouse DRG neurons, 16 h): 7.52
- p-eIF2α levels ([1]; TMEM97KO mouse DRG neurons, 16 h): did not respond
- p-eIF2α levels ([1]; wild-type mouse DRG neurons, 16 h): reduced p-eIF2α levels
- concentration of maximal ISR inhibition (p-eIF2α) ([1]; wild-type mouse DRG neurons, 16 h, comparable to ISRIB 200 nM): 100 nM
